Measured values reported in paper PMC10855164, “Ligand-Based Design of Selective Peptidomimetic uPA and TMPRSS2 Inhibitors with Arg Bioisosteres” (International Journal of Molecular Sciences, 2024).

Legend:
thrombin [1] = target: T1, thrombin (Homo sapiens, UniProt P00734); assay: fluorometric enzyme inhibition assay, thrombin (Z-Gly-Gly-Arg-AMC); assay type: biochemical; details: quotient Ki thrombin / Ki TMPRSS2, from cited Ki values (ref 29)
T1 construct: purchased Bio-techne
Experimental: (§1) The inhibitory activity of the synthesized compounds towards the respective main- and off-target proteases was measured via fluorometric and colorimetric assays. Thus, fluorogenic AMC- or colorimetric pNA-based substrates with a peptide sequence suitable for the tested protease were utilized (see Supplementary Figure S2). At first, the compounds were screened against […] proteases (uPA, TMPRSS2, matriptase, tPA, thrombin, factor Xa) at 20 µM, and a cut-off value of 80% inhibition at this concentration was set, for the differentiation between nonactive (n.a.) and active inhibitors. Due to the reversible inhibition mechanism of the ketobenzothiazole derivates, the IC50 values were determined with Graphpad Prism 9, and afterwards converted to the corresponding Ki values for an adequate comparison between the inhibitory activities of the compounds toward all tested proteases. The Ki values were calculated using the Cheng–Prusoff equation [43].
(§2) Fluorometric inhibition assays
(§3) The inhibitory activities of the compounds against the proteases were determined by enzyme inhibition assays with fluorogenic or colorimetry-based substrates. The fluorescence, caused by cleaved AMC from the fluorogenic substrates (uPA, matriptase, TMPRSS2, thrombin), was measured in white flat-bottom 96-well plates from Greiner Bio-One using a Tecan Infinite F200 Pro plate reader. The absorption, caused by cleaved pNA from colorimetric substrates (factor Xa and tPA), was measured in transparent flat-bottom 96-well plates from Greiner Bio-One using a Tecan Spark 10M plate reader. All measurements with the main-target proteases (uPA and TMRPSS2) were performed as triplicates and with the off-target proteases (matriptase, factor Xa, tPA, thrombin) as duplicates. The substrates and the compounds were prepared as stock solutions in DMSO. Each well contained a total volume of 200 µL, consisting of 185 µL buffer, 5 µL inhibitor in DMSO or pure DMSO as negative control, 5 µL substrate in DMSO and 5 µL enzyme solution in buffer. Dilution series were prepared for the determination of the inhibition constants. The fluorescence signal and absorbance were measured every 30 s for 10 min at 25 or 37 °C with the corresponding excitation/emission (λex = 380 nm / λem = 460 nm) and absorbance (λabs = 405 nm) wavelengths, depending on the targeted protease. IC50 values for the reversible inhibitors were calculated with Graphpad Prism 9 by fitting the remaining enzymatic activity to the four parameter IC50 equation with Y [%] as the residual enzyme activity , Ymax as the maximum value of the dose response curve at inhibitor concentrations [I] = 0 µM, Ymin as the minimum value at high inhibitor concentrations and s as the hill coefficient.[1] The fluorescence progress curves and sigmoidal dose-response curve for inhibition of uPa by compound 38 is shown exemplary in Figure S2. […]
(§4) Due to the dependence of the IC50 value on the substrate affinity and concentration, the Ki values were calculated with the Cheng-Prusoff equation, using the final substrate concentration [S] and the Michaelis-Menten constant KM, (2) for appropriate comparison of the inhibitory activities to the other enzymes and inhibitors.[1]
(§5) KM values were determined by fitting to the Michaelis-Menten equation using Graphpad Prism 9 with v [ΔF/min] as the substrate hydrolysis rate, vmax as the maximum slope of the dose-response curve, and the substrate [S] concentration.[1] The different substrates were serially diluted in DMSO. The measurement was done in analogy to the determination of the inhibitory activity, but with 5 µL pure DMSO instead of inhibitor solution. […]
(§6) The following buffers and substrates were used for the respective assays: uPA (50 mM Tris HCl pH = 7.9, 150 mM […]
(§7) TMPRSS2 (25 mM Tris HCl pH = 8.0, 150 mM NaCl, 5 mM CaCl2, 0.001% TX-100, 100 µM Boc-Gln-Ala-Arg-AMC (KM: 68.63 ± 6.64 µM), 25 °C, 3 nM TMPRSS2)[3]; matriptase (50 mM Tris HCl pH = 8.0, 150 mM NaCl, 5 mM CaCl2, […]

thrombin [2] = target: T1, thrombin; design: method as in PMID 35804152; details: published inhibitor; cited from earlier work
factor Xa [3] = target: T2, factor Xa (Homo sapiens, UniProt P00742); assay: colorimetric enzyme inhibition assay, factor Xa (Z-D-Arg-Gly-Arg-pNA); assay type: biochemical; details: quotient Ki factor Xa / Ki TMPRSS2, from cited Ki values (ref 29)
T2 construct: purchased Bio-techne
Experimental: as §1, §2, §3, §4, §5, §6, §7

factor Xa [4] = target: T2, factor Xa; design: method as in PMID 35804152; details: published inhibitor; cited from earlier work
TMPRSS2 = target: T3, TMPRSS2 (Homo sapiens, UniProt O15393); design: method as in PMID 35804152; details: published inhibitor; cited from earlier work
T3 construct: purchased Cusabio

matriptase [5] = target: T4, matriptase (Homo sapiens, UniProt Q9Y5Y6); design: method as in PMID 35804152; details: published inhibitor; cited from earlier work
T4 construct: catalytic domain of matriptase (uniport: Q9Y5Y6 aa 596–855); hexa-histidine (N); made in house; host or cells: Escherichia coli BL21 Gold (DE3)
T4 sequence (Q9Y5Y6 596-855): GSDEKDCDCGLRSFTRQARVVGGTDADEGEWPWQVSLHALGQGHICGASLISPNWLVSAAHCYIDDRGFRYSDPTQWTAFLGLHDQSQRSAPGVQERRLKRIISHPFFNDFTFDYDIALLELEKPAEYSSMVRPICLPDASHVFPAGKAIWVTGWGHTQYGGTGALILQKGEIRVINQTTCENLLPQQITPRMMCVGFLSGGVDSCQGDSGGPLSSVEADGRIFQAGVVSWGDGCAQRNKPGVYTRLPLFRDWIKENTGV

matriptase [6] = target: T4, matriptase; assay: fluorometric enzyme inhibition assay, matriptase (Boc-Leu-Arg-Arg-AMC); assay type: biochemical; details: quotient Ki matriptase / Ki TMPRSS2, from cited Ki values (ref 29)
Experimental: as §1, §2, §3, §4, §5, §6, §7

T2 sequence (P00742 235-488 limits assumed): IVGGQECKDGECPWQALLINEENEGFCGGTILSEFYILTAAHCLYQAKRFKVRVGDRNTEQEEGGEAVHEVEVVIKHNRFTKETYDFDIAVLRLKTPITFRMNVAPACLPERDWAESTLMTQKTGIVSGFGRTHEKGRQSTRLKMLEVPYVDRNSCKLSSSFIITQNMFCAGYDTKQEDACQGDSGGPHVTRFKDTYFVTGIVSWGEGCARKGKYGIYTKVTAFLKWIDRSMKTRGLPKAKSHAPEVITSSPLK
T2 sequence (P00742 41-179 partner limits assumed): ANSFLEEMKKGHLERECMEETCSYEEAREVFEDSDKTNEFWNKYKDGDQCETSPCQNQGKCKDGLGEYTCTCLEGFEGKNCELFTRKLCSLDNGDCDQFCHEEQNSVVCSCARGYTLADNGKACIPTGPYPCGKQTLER
T3 sequence (O15393 whole entry): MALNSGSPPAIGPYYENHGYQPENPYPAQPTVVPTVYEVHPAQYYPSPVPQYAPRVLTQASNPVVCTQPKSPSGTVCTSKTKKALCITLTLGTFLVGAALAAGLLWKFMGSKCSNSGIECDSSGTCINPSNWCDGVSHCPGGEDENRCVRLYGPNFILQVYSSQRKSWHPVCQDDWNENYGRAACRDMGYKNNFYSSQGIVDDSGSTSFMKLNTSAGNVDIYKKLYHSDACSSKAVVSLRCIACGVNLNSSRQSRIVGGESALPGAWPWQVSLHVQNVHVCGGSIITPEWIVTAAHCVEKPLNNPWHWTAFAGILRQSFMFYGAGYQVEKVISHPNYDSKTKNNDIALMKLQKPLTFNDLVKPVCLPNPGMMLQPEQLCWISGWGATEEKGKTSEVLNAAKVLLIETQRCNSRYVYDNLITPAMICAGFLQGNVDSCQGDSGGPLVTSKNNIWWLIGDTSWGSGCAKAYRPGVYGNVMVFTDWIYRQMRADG

- Selectivity index [SI] Thrombin (thrombin [1]): 418
- Selectivity index [SI] Factor Xa (factor Xa [3]): 16
- Selectivity index [SI] Matriptase (matriptase [6]): 2
SMILES: CC(=O)N[C@@H](CC(N)=O)C(=O)N1CCC[C@H]1C(=O)N[C@@H](CCCNC(=N)N)C(=O)c1nc2ccccc2s1 [Ac-L-Asn-L-Pro-L-Arg-kbt]
- Ki (thrombin [2]): 1050 nM
- Ki (factor Xa [4]): 41.1 nM
- Ki (TMPRSS2): 2.5 nM
- Ki (matriptase [5]): 5.2 nM
